These results are taken from ChEMBL document CHEMBL4007424, “Design and Synthesis of Enantiomerically Pure Decahydroquinoxalines as Potent and Selective κ-Opioid Receptor Agonists with Anti-Inflammatory Activity in Vivo” (J Med Chem, 2017).

Activity calls are given as the source filed them. The calls are words filed in the database; no cut-off is given here.

The term inhibition denotes the share of the control response that was lost under treatment. Low values mean little suppression, high ones strong suppression.

Chain of Sigma non-opioid intracellular receptor 1 (Cavia porcellus) (Q60492 whole entry): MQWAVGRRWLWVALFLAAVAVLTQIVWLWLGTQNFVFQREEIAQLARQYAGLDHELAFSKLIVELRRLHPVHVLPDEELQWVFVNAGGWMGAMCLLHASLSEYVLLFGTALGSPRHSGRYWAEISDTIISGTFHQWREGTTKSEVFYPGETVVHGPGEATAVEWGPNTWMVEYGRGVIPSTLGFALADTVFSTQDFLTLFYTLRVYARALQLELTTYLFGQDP
Chain of Kappa-type opioid receptor (P41145 whole entry): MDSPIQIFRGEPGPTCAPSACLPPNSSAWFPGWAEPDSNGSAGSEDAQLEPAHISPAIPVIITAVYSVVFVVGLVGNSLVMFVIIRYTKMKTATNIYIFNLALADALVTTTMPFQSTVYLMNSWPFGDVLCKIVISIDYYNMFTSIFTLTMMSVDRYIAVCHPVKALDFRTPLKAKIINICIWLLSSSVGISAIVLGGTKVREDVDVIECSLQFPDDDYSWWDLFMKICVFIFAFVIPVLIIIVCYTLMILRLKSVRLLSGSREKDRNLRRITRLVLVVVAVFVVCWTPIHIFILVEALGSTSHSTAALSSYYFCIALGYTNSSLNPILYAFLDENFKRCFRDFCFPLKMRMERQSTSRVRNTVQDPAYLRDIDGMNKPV

One data set deals with Mus musculus. In words: Antiinflammatory activity in tropically administered oxazolone-induced delayed type hypersensitivity BALB/c mouse model assessed as effect on ear weight administered 3 hrs prior to oxazolone challenge on day 7 to 12 post sensitization followed by re-administration of compound on day 13 to 18 without oxazolone challenge measured on day 19.
Conditions: not given
Format: functional.
As for `COC(=O)N1CCN(C(=O)Cc2ccc(Cl)c(F)c2)[C@@H]2[C@@H](N3CC[C@H](O)C3)CCC[C@@H]21`, the Activity entry is “Dose-dependent effect”.
For the molecule `COC(=O)N1CCN(C(=O)Cc2ccc(Cl)cc2)[C@@H]2[C@@H](N3CC[C@H](O)C3)CCC[C@@H]21`, the Activity entry was “Dose-dependent effect”.

The next data set deals with Mu-type opioid receptor (Cavia porcellus) (UniProt P97266). In words: Displacement of [3H]DAMGO from mu-type opioid receptor in guinea pig brain membranes at 1 uM after 120 mins by solid scintillation counting. It counts as cell membranes. As to conditions: Membrane.
Chain of Mu-type opioid receptor (Cavia porcellus) (P97266 whole entry): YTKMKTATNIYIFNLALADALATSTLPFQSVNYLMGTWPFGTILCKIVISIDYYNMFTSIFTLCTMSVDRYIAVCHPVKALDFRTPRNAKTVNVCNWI
Molecule `COC(=O)N1CCN(C(=O)Cc2ccc(Cl)c(Cl)c2)[C@@H]2[C@@H](N(C)C)CCC[C@@H]21` gave an inhibition of 0%.

A further data set concerns Mus musculus. The experiment in a line: Antiinflammatory activity in oxazolone-induced delayed type hypersensitivity BALB/c mouse model assessed as reduction in ear thickness at 0.5 mg applied topically on ear administered 3 hrs prior to oxazolone challenge on day 7 to 12 post sensitization followed by re-administration of compound on day 13 to 18 without oxazolone challenge measured on day 19.
Conditions: not given
It counts as functional.
Turning to `COC(=O)N1CCN(C(=O)Cc2ccc(Cl)c(F)c2)[C@@H]2[C@@H](N3CC[C@H](O)C3)CCC[C@@H]21`, the outcome was Active.
`COC(=O)N1CCN(C(=O)Cc2cccc(Cl)c2)[C@@H]2[C@@H](N3CC[C@H](O)C3)CCC[C@@H]21`: the outcome was Active.

For another data set, the system named is Mus musculus. In words: Antiinflammatory activity in oxazolone-induced delayed type hypersensitivity BALB/c mouse model assessed as effect on histology changes at 0.1 to 2.5 mg applied topically on ear administered 3 hrs prior to oxazolone challenge on day 7 to 12 post sensitization followed by re-administration of compound on day 13 to 18 without oxazolone challenge measured daily prior to treatment from day 7 to 19 by H and E staining based assay. Format: functional.
Conditions: not given
`COC(=O)N1CCN(C(=O)Cc2ccc(Cl)c(F)c2)[C@@H]2[C@@H](N3CC[C@H](O)C3)CCC[C@@H]21`: the outcome was Active.
For `COC(=O)N1CCN(C(=O)Cc2ccc(Cl)cc2)[C@@H]2[C@@H](N3CC[C@H](O)C3)CCC[C@@H]21`, the result was Active.

Test system in a further data set: not listed separately
The experiment in a line: Plasma concentration in Wistar Han rat at 5 mg/kg, iv measured 1 hr post compound administration. It counts as ADME, organism-based.
Conditions: not given
As to `CS(=O)(=O)N1CCN(C(=O)Cc2ccc(F)c(Cl)c2)[C@@H]2[C@@H](N3CC[C@H](O)C3)CCC[C@@H]21.Cl`, the concentration at 1 h was determined as 356 ng/mL.
For the molecule `CS(=O)(=O)N1CCN(C(=O)Cc2ccc(Cl)c(Cl)c2)[C@@H]2[C@@H](N3CC[C@H](O)C3)CCC[C@@H]21.Cl`, the concentration at 1 h is 2170 ng/mL.
The same measure, in the same setting: the figure for `CS(=O)(=O)N1CCN(C(=O)Cc2ccc(Cl)c(F)c2)[C@@H]2[C@@H](N3CC[C@H](O)C3)CCC[C@@H]21.Cl` is 437 ng/mL.

Another data set concerns the target Kappa-type opioid receptor (Homo sapiens, UniProt P41145). The experiment in a line: Agonist activity at recombinant human kappa-type opioid receptor expressed in HEK293 cells at 1 uM after 30 mins by [35S]GTPgammaS binding assay. It counts as functional, cell-based.
Conditions: not given
On the technique in general: Binding of GTPγS marks nucleotide exchange on a G protein.
Consider `COC(=O)N1CCN(C(=O)Cc2ccc(F)c(Cl)c2)[C@@H]2[C@@H](N3CC[C@H](O)C3)CCC[C@@H]21`, for which the Activity is 110%.
As to `COC(=O)N1CCN(C(=O)Cc2ccc(Cl)c(F)c2)[C@@H]2[C@@H](N3CC[C@H](O)C3)CCC[C@@H]21`, the Activity came to 93%.
On to `COC(=O)N1CCN(C(=O)Cc2ccc(Cl)cc2)[C@@H]2[C@@H](N3CC[C@H](O)C3)CCC[C@@H]21`, for which the Activity worked out at 103%.
On to `COC(=O)N1CCN(C(=O)Cc2ccc(Cl)c(Cl)c2)[C@@H]2[C@@H](N(C)C)CCC[C@@H]21`, for which the Activity was found to be 96%.
On to `COC(=O)N1CCN(C(=O)Cc2cccc(Cl)c2)[C@@H]2[C@@H](N3CC[C@H](O)C3)CCC[C@@H]21`, for which the Activity was 102%.

The species named for a further data set is Cavia porcellus. The experiment in a line: Selectivity ratio of Ki for delta-type opioid receptor in guinea pig brain membranes to Ki for kappa-type opioid receptor in guinea pig brain membranes. Format: cell membranes.
Conditions: not given
As for `COC(=O)N1CCN(C(=O)Cc2ccc(F)c(Cl)c2)[C@@H]2[C@@H](N3CC[C@H](O)C3)CCC[C@@H]21`, the Ratio Ki was determined as 80.
Still for that read-out and setting: the figure for `COC(=O)N1CCN(C(=O)Cc2ccc(Cl)c(Cl)c2)[C@@H]2[C@@H](N(C)C)CCC[C@@H]21` is above 50.

Test system in another data set: not listed separately
The experiment in a line: Ratio of drug level in brain to plasma in Wistar Han rat at 5 mg/kg, iv after 1 hr. The following applies: read-out: BPR. It counts as ADME, organism-based.
For the molecule `CS(=O)(=O)N1CCN(C(=O)Cc2ccc(F)c(Cl)c2)[C@@H]2[C@@H](N3CC[C@H](O)C3)CCC[C@@H]21.Cl`, the Kp at 1 h was found to be 0.11.
Turning to `CS(=O)(=O)N1CCN(C(=O)Cc2ccc(Cl)c(Cl)c2)[C@@H]2[C@@H](N3CC[C@H](O)C3)CCC[C@@H]21.Cl`, the Kp at 1 h was 0.02.
As for `CS(=O)(=O)N1CCN(C(=O)Cc2ccc(Cl)c(F)c2)[C@@H]2[C@@H](N3CC[C@H](O)C3)CCC[C@@H]21.Cl`, the Kp at 1 h came to 0.09.

A further data set is filed under the species Sus scrofa. The experiment in a line: Displacement of [3H]-(+)-MK 801 from PCP binding site of NMDA receptor in pig brain cortex membranes at 10 uM after 120 mins by solid scintillation counting. It counts as cell membranes.
Conditions: not given
`COC(=O)N1CCN(C(=O)Cc2ccc(F)c(Cl)c2)[C@@H]2[C@@H](N3CC[C@H](O)C3)CCC[C@@H]21` returned an inhibition of 13%.
Same read-out and setting: with `COC(=O)N1CCN(C(=O)Cc2ccc(Cl)c(F)c2)[C@@H]2[C@@H](N3CC[C@H](O)C3)CCC[C@@H]21` the figure was 11%; with `COC(=O)N1CCN(C(=O)Cc2ccc(Cl)cc2)[C@@H]2[C@@H](N3CC[C@H](O)C3)CCC[C@@H]21`, 7%.
Turning to `COC(=O)N1CCN(C(=O)Cc2ccc(Cl)c(Cl)c2)[C@@H]2[C@@H](N(C)C)CCC[C@@H]21`, the inhibition was determined as 0%.
The molecule `COC(=O)N1CCN(C(=O)Cc2cccc(Cl)c2)[C@@H]2[C@@H](N3CC[C@H](O)C3)CCC[C@@H]21` yielded an inhibition of 4%.

Test system in another data set: not listed separately
The experiment in a line: Plasma concentration in Wistar Han rat at 5 mg/kg, iv measured 0.25 hrs post compound administration.
Conditions: not given
It counts as ADME, organism-based.
On to `CS(=O)(=O)N1CCN(C(=O)Cc2ccc(F)c(Cl)c2)[C@@H]2[C@@H](N3CC[C@H](O)C3)CCC[C@@H]21.Cl`, for which the concentration at 0.25 h came to 1210 ng/mL.
`CS(=O)(=O)N1CCN(C(=O)Cc2ccc(Cl)c(Cl)c2)[C@@H]2[C@@H](N3CC[C@H](O)C3)CCC[C@@H]21.Cl`: the concentration at 0.25 h came out at 4650 ng/mL.
`CS(=O)(=O)N1CCN(C(=O)Cc2ccc(Cl)c(F)c2)[C@@H]2[C@@H](N3CC[C@H](O)C3)CCC[C@@H]21.Cl` came in with a concentration at 0.25 h of 938 ng/mL.

The species entered for a further data set is Rattus norvegicus. In words: Displacement of [3H]-DTG from sigma 2 receptor in rat liver membranes at 1 uM after 120 mins by scintillation counting. Format: cell membranes. As to conditions: Membrane. Background: Loss of bound radioactivity is the signal in a displacement assay; it reports binding, not function.
The molecule `COC(=O)N1CCN(C(=O)Cc2ccc(F)c(Cl)c2)[C@@H]2[C@@H](N3CC[C@H](O)C3)CCC[C@@H]21` displayed an inhibition of 35%.
Molecule `COC(=O)N1CCN(C(=O)Cc2ccc(Cl)c(F)c2)[C@@H]2[C@@H](N3CC[C@H](O)C3)CCC[C@@H]21` had an inhibition of 0%.
The molecule `COC(=O)N1CCN(C(=O)Cc2ccc(Cl)cc2)[C@@H]2[C@@H](N3CC[C@H](O)C3)CCC[C@@H]21` had an inhibition of 11%.
On the same count and under the same terms, the figure for `COC(=O)N1CCN(C(=O)Cc2ccc(Cl)c(Cl)c2)[C@@H]2[C@@H](N(C)C)CCC[C@@H]21` is 0%.
For `COC(=O)N1CCN(C(=O)Cc2cccc(Cl)c2)[C@@H]2[C@@H](N3CC[C@H](O)C3)CCC[C@@H]21`, the inhibition was found to be 0%.

For the next data set, the system named is Mus musculus. The experiment in a line: Antiinflammatory activity in oxazolone-induced delayed type hypersensitivity BALB/c mouse model assessed as reduction in ear weight at 0.1 to 2.5 mg applied topically on ear administered 3 hrs prior to oxazolone challenge on day 7 to 12 post sensitization followed by re-administration of compound on day 13 to 18 without oxazolone challenge measured on day 19. It counts as functional.
Conditions: not given
Consider `COC(=O)N1CCN(C(=O)Cc2ccc(Cl)c(F)c2)[C@@H]2[C@@H](N3CC[C@H](O)C3)CCC[C@@H]21`, for which the Activity entry was “Dose-dependent effect”.
Take `COC(=O)N1CCN(C(=O)Cc2ccc(Cl)cc2)[C@@H]2[C@@H](N3CC[C@H](O)C3)CCC[C@@H]21`: the Activity entry was “Dose-dependent effect”.

The test system of the next data set is Rattus norvegicus. The experiment in a line: Toxicity in Wistar Han rat assessed as assessed as clinical signs changes at 5 mg/kg, iv after 1 hr. It counts as organism-based. As to conditions: in vivo.
On to `CS(=O)(=O)N1CCN(C(=O)Cc2ccc(F)c(Cl)c2)[C@@H]2[C@@H](N3CC[C@H](O)C3)CCC[C@@H]21.Cl`, for which the Activity entry is listed as “Non-Toxic”.
Still for that read-out and setting: with `CS(=O)(=O)N1CCN(C(=O)Cc2ccc(Cl)c(Cl)c2)[C@@H]2[C@@H](N3CC[C@H](O)C3)CCC[C@@H]21.Cl` the entry was “Non-Toxic”.
For `CS(=O)(=O)N1CCN(C(=O)Cc2ccc(Cl)c(F)c2)[C@@H]2[C@@H](N3CC[C@H](O)C3)CCC[C@@H]21.Cl`, the Activity result is on record as “Non-Toxic”.

Test system in a further data set: not listed separately
In words: Drug level in Wistar Han rat brain at 5 mg/kg, iv measured 1 hr post compound administration. It counts as ADME, organism-based. As to conditions: read-out: Drug uptake.
For the molecule `CS(=O)(=O)N1CCN(C(=O)Cc2ccc(F)c(Cl)c2)[C@@H]2[C@@H](N3CC[C@H](O)C3)CCC[C@@H]21.Cl`, the concentration at 1 h is 38.7 ng/g.
For `CS(=O)(=O)N1CCN(C(=O)Cc2ccc(Cl)c(Cl)c2)[C@@H]2[C@@H](N3CC[C@H](O)C3)CCC[C@@H]21.Cl`, the concentration at 1 h was found to be 52.3 ng/g.
Same read-out and setting: the figure for `CS(=O)(=O)N1CCN(C(=O)Cc2ccc(Cl)c(F)c2)[C@@H]2[C@@H](N3CC[C@H](O)C3)CCC[C@@H]21.Cl` is 37.5 ng/g.

A further data set addresses Sigma non-opioid intracellular receptor 1 (Cavia porcellus) (UniProt Q60492). In words: Displacement of [3H]-(+)-pentazocine from sigma1-type […] receptor in guinea pig cortex membranes at 1 uM after 120 mins by solid scintillation counting. Format: cell membranes.
Conditions: not given
On to `COC(=O)N1CCN(C(=O)Cc2ccc(F)c(Cl)c2)[C@@H]2[C@@H](N3CC[C@H](O)C3)CCC[C@@H]21`, for which the inhibition came to 0%.
For `COC(=O)N1CCN(C(=O)Cc2ccc(Cl)c(F)c2)[C@@H]2[C@@H](N3CC[C@H](O)C3)CCC[C@@H]21`, the inhibition was determined as 0%.
Consider `COC(=O)N1CCN(C(=O)Cc2ccc(Cl)cc2)[C@@H]2[C@@H](N3CC[C@H](O)C3)CCC[C@@H]21`, for which the inhibition was found to be 21%.
The molecule `COC(=O)N1CCN(C(=O)Cc2ccc(Cl)c(Cl)c2)[C@@H]2[C@@H](N(C)C)CCC[C@@H]21` returned an inhibition of 4%.
The molecule `COC(=O)N1CCN(C(=O)Cc2cccc(Cl)c2)[C@@H]2[C@@H](N3CC[C@H](O)C3)CCC[C@@H]21` gave an inhibition of 0%.
